Data published in US8153818B2, “Triazolyl phenyl benzenesulfonamides” (ChemoCentryx, Inc., priority 2006, dated 2012).

These molecules were tested against T1, CCR9 (Homo sapiens, UniProt P51686) (assay: CCR9 activity in one of the chemotaxis, binding or calcium mobilization assays). Details: assay not specified per compound.
T1 construct: chemokine expressing cells (such as THP-1 cells for CCR2 assay or MOLT-4 cells for CCR9 assay); host or cells: MOLT-4
T1 sequence (P51686 1-369): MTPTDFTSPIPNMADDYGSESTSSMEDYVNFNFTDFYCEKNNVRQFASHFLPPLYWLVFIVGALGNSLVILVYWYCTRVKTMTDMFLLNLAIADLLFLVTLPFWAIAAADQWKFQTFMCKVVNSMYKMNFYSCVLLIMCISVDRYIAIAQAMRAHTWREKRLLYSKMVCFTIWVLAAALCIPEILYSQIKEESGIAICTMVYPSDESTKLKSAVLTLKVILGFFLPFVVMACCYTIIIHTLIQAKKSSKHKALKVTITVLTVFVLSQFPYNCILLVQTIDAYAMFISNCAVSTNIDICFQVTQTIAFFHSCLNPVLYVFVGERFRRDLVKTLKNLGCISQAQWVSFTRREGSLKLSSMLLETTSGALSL
Format: cell-based
Method in brief: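 Chemotaxis: THP-1 cells (CCR2, 0.1 nM MCP-1, 90 min) or MOLT-4 cells (CCR9, 50 nM TECK, 150 min) preincubated with compound 15 min RT, migration at 37 °C through 5-μm membrane, CyQUANT read; IC50 by nonlinear regression. Calcium flux: Fluo-4-loaded cells, 0.1 nM MCP-1 or 25 nM TECK. Binding: THP-1, ~50 pM [125I]MCP-1, 3 h, 4 °C.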

IC50, < 1000 nM:
CC(C)c1nnc(-c2cc(Cl)ccc2NS(=O)(=O)c2ccc(C(C)(C)C)cc2)n1[C@H]1CCNC1 [Compound 118, (S)-4-tert-butyl-N-(4-chloro-2-(5-isopropyl-4-(pyrrolidin-3-yl)-4H-1,2,4-triazol-3-yl)phenyl)benzenesulfonamide]
CCc1nnc(-c2cc(Cl)ccc2NS(=O)(=O)c2ccc(C(C)(C)C)cc2)n1[C@H]1CCNC1 [Compound 119, (S)-4-tert-butyl-N-(4-chloro-2-(5-ethyl-4-(pyrrolidin-3-yl)-4H-1,2,4-triazol-3-yl)phenyl)benzenesulfonamide]
CC(C)(C)c1ccc(S(=O)(=O)Nc2cc(F)c(Cl)cc2-c2nncn2C2CCOC2)cc1 (stereo not drawn) [Compound 120]
Cn1c(CN2CCCC2)nnc1-c1cc(Cl)c(F)cc1NS(=O)(=O)c1ccc(C(C)(C)C)cc1 [Compound 121]
Cn1c(CN2CCC2)nnc1-c1cc(Cl)c(F)cc1NS(=O)(=O)c1ccc(C(C)(C)C)cc1 [Compound 122]
Cn1c(CO)nnc1-c1cc(Cl)c(F)cc1NS(=O)(=O)c1ccc(C(C)(C)C)cc1 [Compound 123, 4-tert-butyl-N-(4-chloro-5-fluoro-2-(5-(hydroxymethyl)-4-methyl-4H-1,2,4-triazol-3-yl)phenyl)benzenesulfonamide]
CC(=O)N1CCC(n2c(C)nnc2-c2cc(Cl)ccc2NS(=O)(=O)c2ccc(C(C)(C)C)cc2)C1 (stereo not drawn) [Compound 124]
Cc1nnc(-c2cc(Cl)ccc2NS(=O)(=O)c2ccc(C(C)(C)C)cc2)n1CCN(C)C [Compound 125, 4-tert-butyl-N-(4-chloro-2-(4-(2-(dimethylamino)ethyl)-5-methyl-4H-1,2,4-triazol-3-yl)phenyl)benzenesulfonamide]
CNCCn1c(C)nnc1-c1cc(Cl)ccc1NS(=O)(=O)c1ccc(C(C)(C)C)cc1 [Compound 126, 4-tert-butyl-N-(4-chloro-2-(5-methyl-4-(2-(methylamino)ethyl)-4H-1,2,4-triazol-3-yl)phenyl)benzenesulfonamide]
Cc1nnc(-c2cc(Cl)ccc2NS(=O)(=O)c2ccc(C(C)(C)C)cc2)n1[C@H]1CCNC1 [Compound 127]
CCc1nnc(-c2cc(C#N)ccc2NS(=O)(=O)c2ccc(C(C)(C)C)cc2)n1C [Compound 128, 4-tert-butyl-N-(4-cyano-2-(5-ethyl-4-methyl-4H-1,2,4-triazol-3-yl)phenyl)benzenesulfonamide]
CCc1nnc(-c2cc(C(N)=O)ccc2NS(=O)(=O)c2ccc(C(C)(C)C)cc2)n1C [Compound 129, 4-(4-tert-butylphenylsulfonamido)-3-(5-ethyl-4-methyl-4H-1,2,4-triazol-3-yl)benzamide]
CCc1nnc(-c2cc(C(=O)O)ccc2NS(=O)(=O)c2ccc(C(C)(C)C)cc2)n1C [Compound 130, 4-(4-tert-butylphenylsulfonamido)-3-(5-ethyl-4-methyl-4H-1,2,4-triazol-3-yl)benzoic acid]
CC(C)(C)c1ccc(S(=O)(=O)Nc2ccc(Cl)cc2-c2nncn2C2CNC2)cc1 [Compound 131]
CNCc1nnc(-c2cc(Cl)ccc2NS(=O)(=O)c2ccc(C(C)(C)C)cc2)n1C [Compound 132, 4-tert-butyl-N-(4-chloro-2-(4-methyl-5-((methylamino)methyl)-4H-1,2,4-triazol-3-yl)phenyl)benzenesulfonamide]
CCc1nnc(-c2cc(C(=O)OC)ccc2NS(=O)(=O)c2ccc(C(C)(C)C)cc2)n1C [Compound 133, methyl 4-(4-tert-butylphenylsulfonamido)-3-(5-ethyl-4-methyl-4H-1,2,4-triazol-3-yl)benzoate]
CC(C)Oc1ccc(S(=O)(=O)Nc2ccc(Cl)cc2-c2nncn2[C@H]2CCNC2)cc1 [Compound 134, (S)—N-(4-chloro-2-(4-(pyrrolidin-3-yl)-4H-1,2,4-triazol-3-yl)phenyl)-4-isopropoxybenzenesulfonamide]
Cc1nnc(-c2cc(Cl)ccc2NS(=O)(=O)c2ccc(N3CCOCC3)c(F)c2)n1C [Compound 135, N-(4-chloro-2-(4,5-dimethyl-4H-1,2,4-triazol-3-yl)phenyl)-3-fluoro-4-morpholinobenzenesulfonamide]
COCCn1cnnc1-c1cc(Cl)c(F)cc1NS(=O)(=O)c1ccc(C(C)(C)C)cc1 [Compound 136, 4-tert-butyl-N-(4-chloro-5-fluoro-2-(4-(2-methoxyethyl)-4H-1,2,4-triazol-3-yl)phenyl)benzenesulfonamide]
Cn1c(CCO)nnc1-c1cc(Cl)c(F)cc1NS(=O)(=O)c1ccc(C(C)(C)C)cc1 [Compound 137, 4-tert-butyl-N-(4-chloro-5-fluoro-2-(5-(2-hydroxyethyl)-4-methyl-4H-1,2,4-triazol-3-yl)phenyl)benzenesulfonamide]
CC(C)NCc1nnc(-c2cc(Cl)ccc2NS(=O)(=O)c2ccc(C(C)(C)C)cc2)n1C [Compound 138, 4-tert-butyl-N-(4-chloro-2-(5-((isopropylamino)methyl)-4-methyl-4H-1,2,4-triazol-3-yl)phenyl)benzenesulfonamide]
CO[C@@H](C)c1nnc(-c2cc(Cl)c(F)cc2NS(=O)(=O)c2ccc(C(C)(C)C)cc2)n1C [Compound 139]
Cn1c(-c2cc(Cl)c(F)cc2NS(=O)(=O)c2ccc(C(C)(C)C)cc2)nnc1[C@H]1CCCN1 [Compound 140]
CC(C)N1CC[C@H](n2cnnc2-c2cc(Cl)ccc2NS(=O)(=O)c2ccc(C(C)(C)C)cc2)C1 [Compound 141]
CC1(c2ccc(S(=O)(=O)Nc3ccc(Cl)cc3-c3nncn3[C@H]3CCNC3)cc2)CCOCC1 [Compound 142, (S)—N-(4-chloro-2-(4-(pyrrolidin-3-yl)-4H-1,2,4-triazol-3-yl)phenyl)-4-(4-methyltetrahydro-2H-pyran-4-yl)benzenesulfonamide]
CC(C)(C)c1ccc(S(=O)(=O)Nc2ccc(Cl)cc2-c2nncn2[C@H]2CCN(C(N)=O)C2)cc1 [Compound 143]
Cn1c(CN2CCOCC2)nnc1-c1cc(Cl)ccc1NS(=O)(=O)c1ccc(C(C)(C)C)cc1 [Compound 144]
Cn1c(-c2cc(Cl)c(F)cc2NS(=O)(=O)c2ccc(C(C)(C)C)cc2)nnc1C1CCCNC1 (stereo not drawn) [Compound 145]
CC(C)c1nnc(-c2cc(Cl)c(F)cc2NS(=O)(=O)c2ccc(C(C)(C)C)cc2)n1[C@H]1CCNC1 [Compound 146]
Cn1c(CN2CCNCC2)nnc1-c1cc(Cl)c(F)cc1NS(=O)(=O)c1ccc(C(C)(C)C)cc1 [Compound 147]
Cn1c(CN[C@H]2CCOC2)nnc1-c1cc(Cl)c(F)cc1NS(=O)(=O)c1ccc(C(C)(C)C)cc1 [Compound 148]
COCCN(C)Cc1nnc(-c2cc(Cl)c(F)cc2NS(=O)(=O)c2ccc(C(C)(C)C)cc2)n1C [Compound 149, 4-tert-butyl-N-(4-chloro-5-fluoro-2-(5-(((2-methoxyethyl)(methyl)amino)methyl)-4-methyl-4H-1,2,4-triazol-3-yl)phenyl)benzenesulfonamide]
CC(C)n1c(-c2cc(Cl)ccc2NS(=O)(=O)c2ccc(C(C)(C)C)cc2)nnc1C1(C)CCOCC1 [Compound 150]
CN1CCN(Cc2nnc(-c3cc(Cl)c(F)cc3NS(=O)(=O)c3ccc(C(C)(C)C)cc3)n2C)CC1 [Compound 151]
Cn1c(CNC2CCOCC2)nnc1-c1cc(Cl)c(F)cc1NS(=O)(=O)c1ccc(C(C)(C)C)cc1 [Compound 152]
CC(C)(C)c1ccc(S(=O)(=O)Nc2ccc(Cl)cc2-c2nncn2[C@H]2CCN(S(C)(=O)=O)C2)cc1 [Compound 153]
CC(C)n1c(CN2CCOCC2)nnc1-c1cc(Cl)c(F)cc1NS(=O)(=O)c1ccc(C(C)(C)C)cc1 [Compound 154]
Cc1nnc(-c2cc(Cl)ccc2NS(=O)(=O)c2ccc(C(C)(C)C)cc2)n1C1CCN(C)CC1 [Compound 155]
CC(C)(C)c1ccc(S(=O)(=O)Nc2ccc(Cl)cc2-c2nnc3ncccn23)cc1 [Compound 156, N-(2-([1,2,4]triazolo[4,3-a]pyrimidin-3-yl)-4-chlorophenyl)-4-tert-butylbenzenesulfonamide]
